# Values of other authors, collected in patent US9259405B2, “Method of treating functional somatic syndromes with combination of famciclovir and diclofenac” (INNOVATIVE MED CONCEPTS, LLC, priority 2012, dated 2016).
# System: fibromyalgia patients
# Conditions: J. Rheumatology (2004) 31, 783-784
smiles,measurement,value
CC(C)[C@H](N)C(=O)OCCOCn1cnc2c(=O)[nH]c(N)nc21 [valacyclovir],treatment of fibromyalgia patients,not successful
